Data from patent US20160102052A1, “Use of Cysteamine in Treating Infections caused by Yeasts/Moulds” (priority 2014, published 2016).
Like-named read-outs stand apart in the source and are kept apart here.

Tested on: Exophiala dermatitidis CA01
Experiment: Broth microdilution chequerboard analysis of Lynovex (NM001) in combination with clinical antifungals
Format: cell-based
Details: for MIC: Exophiala dermatitidis, CA01, 72 h, antifungal in isolation, read-out: Antifungal MIC100; for MIC / Antifungal MIC100 in Combination: 72 h; for MIC / Antifungal MIC100 in Combination / Antifungal MIC50 in Combination: 35° C.; for FICI: antifungal with Lynovex (NM001), <0.5 Synergy, 0.5-1 Additive, >1 Indifference; for Antifungal MIC100 in Combination / Antifungal MIC50 in Combination: in combination with Lynovex (NM001)
Protocol: The aim of the experiment was to determine the effect of Lynovex (NM001) on the antifungal drug susceptibility of Exophiala dermatitidis CA01. Microtitre plates were prepared following CLSI recommendations for broth microdilution chequerboard method. These plates contained a serial doubling dilution of Lynovex (NM001) combined with serial doubling dilutions of antifungals drugs; Fluconazole, Itraconazole, Caspofungin and Amphotericin B. […] These were incubated at 35° C. and read at 72 h, 96 h, 120 h and 144 h on the BioTek plate reader. […] Three independent E. dermatitidis CA01 cultures were grown on PDA slope for 6 days at 35° C. • 7. Cultures were removed from incubator. 2 ml sterile 0.15M NaCl added to the overnight culture and cells harvested from the surface of the agar. Cells placed in fresh bijou tube. • 8. The cultures were allowed to rest for up to 10 minutes, allowing any hyphae to settle to the bottom. The top layer of conidia was removed into fresh bijou. Hyphae were discarded. • 9. […] This is continued to F12 where 100 μl is removed and discarded. • f. This dilution series was repeated in rows G-H for the remaining 2 cultures • g. Plate read at OD530 on BioTek • h. […] This preparation step occurs in two parts. First, Lynovex (NM001) and antifungals are serially diluted, down and across microtitre plates, respectively. Equal volumes of Lynovex and antifungal are then combined in a fresh microtitre plate, prior to inoculation. […] Stock solutions of Lynovex and antifungals were prepared at 4× desired concentrations. The plate layout at the end of this protocol is the final concentration in the plate following the combination of Lynovex and antifungals and the addition of the inocula. […] All other wells contain 150 μl sterile dH2O. • 9. Serial doubling dilutions are carried out from A to B whereby 150 μl is removed from A and placed into B and mixed well. Then take 150 μl B and place in C and mix well. This is repeated down to row G where the final 150 μl is discarded. […] The same procedure is repeated for the other 4 antifungals, carrying the dilutions across the plate i.e. […] At the final dilution in column 10, the final 150 μl is discarded. […] Inoculating Plates with E. dermatitidis CA01 • 6. Add 100 μl (total volume 200 μl) of the prepared E. dermatitidis CA01 culture to the all wells on the plate except wells H12. […] H12 will contain 100 μl water and 100 μl 2×RPMI-1640 alone, constituting an uninoculated control. • 8. The plate is read in the BioTek at OD530. • 9. Plates are then placed in a plastic box containing a Petri dish of water, sealed and incubated at 35° C. The presence of the water in the dish or on the tissue provides and environment of relatively high humidity. • 10. OD530 is then read at 72 h, 96 h, 120 h and 144 h and raw data processed using Microsoft Excel. • 11. Fractional Inhibitory Concentration (FIC) Index values are generated using MIC100 for 72 h data and MIC50 for later time points using the following formula: […]

MIC (GEOMEAN) | MIC (MEAN) | MIC (Range) | Antifungal MIC100 in Combination (GEOMEAN) | Antifungal MIC50 in Combination (GEOMEAN, 96 h) | Antifungal MIC50 in Combination (GEOMEAN, 120 h) | Antifungal MIC50 in Combination (GEOMEAN, 144 h) | Antifungal MIC100 in Combination (MEAN) | Antifungal MIC50 in Combination (MEAN, 96 h) | Antifungal MIC50 in Combination (MEAN, 120 h) | Antifungal MIC50 in Combination (MEAN, 144 h) | Antifungal MIC100 in Combination (Range) | Compound | FICI (GEOMEAN, MIC50, 96 h) | FICI (GEOMEAN, MIC50, 120 h) | FICI (GEOMEAN, MIC50, 144 h) | FICI (GEOMEAN, MIC100, 72 h) | FICI (MEAN, MIC50, 96 h) | FICI (MEAN, MIC50, 120 h) | FICI (MEAN, MIC50, 144 h) | FICI (MEAN, MIC100, 72 h) | further results
4.5 µg/mL | 4.7 µg/mL | 4 to 8 µg/mL | 0.14 µg/mL | 0.37 µg/mL | 0.19 µg/mL | 0.20 µg/mL | 0.24 µg/mL | 0.74 µg/mL | 0.33 µg/mL | 0.27 µg/mL | 0.03 to 0.5 µg/mL | CCC(C)n1ncn(-c2ccc(N3CCN(c4ccc(OCC5COC(Cn6cncn6)(c6ccc(Cl)cc6Cl)O5)cc4)CC3)cc2)c1=O (stereo not drawn) [Itraconazole] | 0.27 (7) | 0.18 (5) | 0.18 (3) | 0.18 (5) | 0.32 (7) | 0.20 (5) | 0.19 (3) | 0.19 (5) | Antifungal MIC50 in Combination (Range, 96 h): 0.06 to 2 µg/mL; Antifungal MIC50 in Combination (Range, 120 h): 0.06 to 1 µg/mL; Antifungal MIC50 in Combination (Range, 144 h): 0.06 to 0.5 µg/mL
25 µg/mL | 26 µg/mL | 15.6 to 31.2 µg/mL | 2.0 µg/mL | 11.84 µg/mL | 1.95 µg/mL | 3.91 µg/mL | 2.0 µg/mL | 14.84 µg/mL | 4.20 µg/mL | 6.51 µg/mL | 2.0 µg/mL | CC[C@H](C)C[C@H](C)CCCCCCCCC(=O)N[C@H]1C[C@@H](O)[C@@H](NCCN)NC(=O)[C@@H]2[C@@H](O)CCN2C(=O)[C@H]([C@H](O)CCN)NC(=O)[C@H]([C@H](O)[C@@H](O)c2ccc(O)cc2)NC(=O)[C@@H]2C[C@@H](O)CN2C(=O)[C@H]([C@@H](C)O)NC1=O [Caspofungin] | 0.48 (4) | 0.24 (4) | 0.41 (3) | 0.25 (1) | 0.58 (4) | 0.27 (4) | 0.52 (3) | 0.25 (1) | Antifungal MIC50 in Combination (Range, 96 h): 3.91 to 31.25 µg/mL; Antifungal MIC50 in Combination (Range, 120 h): 0.49 to 15.625 µg/mL; Antifungal MIC50 in Combination (Range, 144 h): 0.23 µg/mL
250 µg/mL | 250 µg/mL | 250 µg/mL | 25 µg/mL | 35 µg/mL | 44 µg/mL | 63 µg/mL | 34 µg/mL | 51 µg/mL | 59 µg/mL | 98 µg/mL | 7.81 to 62.5 µg/mL | OC(Cn1cncn1)(Cn1cncn1)c1ccc(F)cc1F [Fluconazole] | 0.44 (6) | 0.41 (4) | 0.53 (4) | 0.42 (3) | 0.45 (6) | 0.42 (4) | 0.55 (4) | 0.43 (3) | Antifungal MIC50 in Combination (Range, 96 h): 7.81 to 125 µg/mL; Antifungal MIC50 in Combination (Range, 120 h): 15.63 to 125 µg/mL; Antifungal MIC50 in Combination (Range, 144 h): 15.63 to 250 µg/mL
